Values of other authors in publication PMC5845353, “The selective cathepsin K inhibitor MIV-711 attenuates joint pathology in experimental animal models of osteoarthritis” (Journal of Translational Medicine, 2018).

Tested on: HP-1
Set-up: method as in PMID 22484689
Settings: ACLT rabbits; cited from earlier work

With `CN1CCN(c2nc(-c3ccc(C(=O)NC4(C(=O)NCC#N)CCCCC4)cc3)cs2)CC1` [L-006235] as the molecule, how does the “reduction of HP-1 at dose sufficient for protection of bone loss” value read?
The value was 60%.
